Reference: patent publication US8748603B2, “Crystalline forms of N-[2-[[(2,3-difluorophenyl)methyl]THIO]-6-{[(1R,2S)-2,3-dihydroxy-1-methylpropyl]oxy}-4-pyrimidinyl]-1-azetidinesulfonamide” (AstraZeneca AB, priority 2010, dated 2014)

Experiment: Competitive slurry trials between A-form and D-form (thermodynamic stability)
Format: physicochemical
Conditions: for Relative thermodynamic stability of crystalline forms: D-form versus A-form, conclusion from competitive slurries in methanol, about 5° C. to about 50° C.; for Solid form stability in competitive slurry: slurries containing A-form and D-form in methanol, held at about 5° C. to about 50° C.
Protocol: Competitive slurry trials were performed between the A-form (obtained by Example 1) and the D-form (obtained by Example 2).
Competitive slurries containing the A-form and D-form in methanol were held at any temperatures ranging from about 5° C. to about 50° C.
Complete conversion of the A-form to the D-form takes place, if the slurry is held at a particular temperature for a sufficient duration of time.

Solid form stability in competitive slurry	Compound	Relative thermodynamic stability of crystalline forms	Relative thermodynamic stability of crystalline forms (listed as Form D)
remained stable	C[C@@H](Oc1cc(NS(=O)(=O)N2CCC2)nc(SCc2cccc(F)c2F)n1)[C@@H](O)CO [D-form, N-[2-[[(2,3-difluorophenyl)methyl]thio]-6-{[(1R,2S)-2,3-dihydroxy-1-methylpropyl]oxy}-4-pyrimidinyl]-1-azetidinesulfonamide]	thermodynamically more stable form than the A-form	more thermodynamically stable than the A-form
transforms to the D-form	C[C@@H](Oc1cc(NS(=O)(=O)N2CCC2)nc(SCc2cccc(F)c2F)n1)[C@@H](O)CO [A-form, N-[2-[[(2,3-difluorophenyl)methyl]thio]-6-{[(1R,2S)-2,3-dihydroxy-1-methylpropyl]oxy}-4-pyrimidinyl]-1-azetidinesulfonamide]		
